Laboratory results from patent US9051325B2, “Bicyclic [5,6] imidazo pyrimodone compounds for use in the treatment of diseases or conditions mediated by Lp-PLA2” (GlaxoSmithKline Intellectual Property Development Limited, priority 2013, dated 2015).

Tests used:
rat EAE model = experiment: Rat experimental autoimmune encephalomyelitis (EAE) model, preventive treatment; type: in vivo
Procedure: A further study was carried out to study the impact of Lp-PLA2 inhibitors on modulating M1/M2 imbalance. In this study, rats were induced to develop experimental autoimmune encephalomyelitis (EAE) by immunization with myelin basic protein (MBP) antigen and treated with a known Lp-PLA2 inhibitor: 5-((9-Methoxy-4-oxo-6,7-dihydro-4H-pyrimido[6,1-a]isoquinolin-2-yl)oxy)-2-(3-(trifluoromethyl)phenoxy)benzonitrile (See PCT application no. PCT/CN2011/001597). In this preventive treatment model, the compound was administered at day 0 (day of immunization) and continued to administer until day 22. The study lasted for 25 days. Rats were subsequently monitored for symptoms of EAE. Rats were immunized with MBP to develop EAE and symptoms were monitored daily. Plasma Lp-PLA2 activity, OxLDL, and LysoPC concentration were determined at different time points through the course of EAE.

[1] = test system: proinflammatory (M1) and anti-inflammatory (M2) markers in macrophages; experiment: Ex vivo analysis of M1 and M2 markers in macrophages of EAE rats by realtime PCR; design: species or system rat; conditions: splenic and CNS infiltrating macrophages of EAE rats
Procedure: Ex vivo analysis of proinflammatory (M1) and anti-inflammatory (M2) markers in control and compound treated EAE rats. Splenic macrophages were harvested at day 13 post MBP-immunization and assayed for expression of a variety of markers by realtime PCR. CNS infiltrating cells were harvested and macrophages were analyzed for expression of M1 and M2 markers by realtime PCR.

Structure (SMILES): COc1ccc2c(c1)CCn1c-2cc(Oc2ccc(Oc3cccc(C(F)(F)F)c3)c(C#N)c2)nc1=O [5-((9-Methoxy-4-oxo-6,7-dihydro-4H-pyrimido[6,1-a]isoquinolin-2-yl)oxy)-2-(3-(trifluoromethyl)phenoxy)benzonitrile]
- Lp-PLA2 activity in rat EAE plasma (rat EAE model; rat EAE plasma): decreased
- LysoPC levels in rat EAE plasma (rat EAE model; rat EAE plasma): decreased
- clinical disease (rat EAE model; rat EAE, MBP immunization, administered day 0 to day 22): reduction in clinical disease
- M1 markers [1]: decrease
- M2 markers [1]: increase
